Measured values reported in patent publication US20200247812A1 (Integral Biosciences Private Limited, priority 2018, published 2020).

Target: T1, ALK 5 (Homo sapiens, UniProt P36897)
T1 sequence (P36897 34-503): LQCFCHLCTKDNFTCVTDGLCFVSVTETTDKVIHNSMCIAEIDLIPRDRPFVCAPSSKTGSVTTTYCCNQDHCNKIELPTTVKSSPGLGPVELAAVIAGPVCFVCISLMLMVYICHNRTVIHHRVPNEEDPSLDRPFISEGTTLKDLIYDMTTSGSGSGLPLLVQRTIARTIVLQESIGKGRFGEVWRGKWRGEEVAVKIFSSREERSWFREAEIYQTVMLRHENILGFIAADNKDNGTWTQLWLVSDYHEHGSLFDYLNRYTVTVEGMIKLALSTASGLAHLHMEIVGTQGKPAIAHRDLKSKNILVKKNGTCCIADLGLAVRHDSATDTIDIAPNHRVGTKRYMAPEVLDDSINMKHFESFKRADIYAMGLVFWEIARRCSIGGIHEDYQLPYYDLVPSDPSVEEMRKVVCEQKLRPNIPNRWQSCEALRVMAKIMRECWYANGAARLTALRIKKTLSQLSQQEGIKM
Assay: In vitro kinase assay (ALK5 IC50, LanthaScreen Terbium labeled TR-FRET)
Assay type: biochemical
Conditions: TGF-β kinase 6 nM, ATP 10 μM, read-out: Enzyme Activity ALK 5 IC50
Procedure: Compounds of the invention were screened in an in vitro kinase assay against ALK 5, a members of the TGF-β family of Ser/Thr kinases. Standard kinase testing conditions and techniques were employed. IC50 values of compounds against TGF-ß kinase was determined by LanthaScreen™ Terbium Labeled TR-FRET assay. Kinase assays were performed in 1X kinase buffer (# PV6135, Invitrogen, Life Technologies Grand Island, N.Y.) where total reaction volume was 10 μL in low-volume 384-well plates (#4511, Corning). Serially diluted compounds (3-fold) were incubated with TGF-β kinase (6 nM) for 10 min, following which a mixture of ATP (10 μM) (# A1852, Sigma, St-Louis, Mo.) and fluorescent-PolyGT substrate (200 nM); Cat # PV3610, Invitrogen, Life Technologies Grand Island, N.Y.) was added and incubated in dark at room temperature for 1 h. After 1 h, 10 μL stop solution containing Terbium labeled antibody (4 nM; Cat # PV3529, Invitrogen, Life Technologies Grand Island, N.Y.) and EDTA (# E5134, Sigma, St-Louis, Mo.; 20 mM) in TR-FRET dilution buffer (Cat # PV3574, Invitrogen, Life Technologies Grand Island, N.Y.) was added. Readings were taken in a Synergy Neo Plate reader (BioTek, Winooski) at single excitation of 340 nm and Dual emission at 495 nm and 520 nm respectively.
The % activity of test samples was calculated as (Sample-Min)×100/(Max −Min). [Max: DMSO control, complete reaction with enzyme with DMSO and Min: No enzyme with DMSO]. Percent inhibition (100-% activity) was fitted to the “four-parameter logistic model” in XLfit for determination of IC50 values.

Row | Compound | IC50
1 | CN(C)c1[nH]c(=O)c(-c2cc(Cl)ccc2F)cc1Nc1ccncc1C#N [Compound 1.34, 4-((5-(5-chloro-2-fluorophenyl)-2-(dimethylamino)-6-oxo-1,6-dihydropyridin-3-yl)amino)nicotinonitrile] | > 5 µM
2 | CN(C)c1[nH]c(=O)c(-c2cc(Cl)ccc2F)cc1Nc1ccnc2c1ccn2C [Compound 1.28, 3-(5-chloro-2-fluorophenyl)-6-(dimethylamino)-5-((1-methyl-1H-pyrrolo[2,3-b]pyridin-4-yl)amino)pyridin-2(1H)-one] | > 5 µM
3 | C[C@@H](CO)NC(=O)c1cnccc1Nc1cc(-c2cc(Cl)ccc2F)c(=O)n(C)c1 [Compound 1.8, (S)-4-((5-(5-chloro-2-fluorophenyl)-1-methyl-6-oxo-1,6-dihydropyridin-3-yl)amino)-N-(1-hydroxypropan-2-yl)nicotinamide] | > 5 µM
4 | C[C@@H](CO)NC(=O)c1cnccc1Nc1c[nH]c(=O)c(-c2cc(Cl)ccc2F)c1 [Compound 1.2, (S)-4-((5-(5-chloro-2-fluorophenyl)-6-oxo-1,6-dihydropyridin-3-yl)amino)-N-(1-hydroxypropan-2-yl)nicotinamide] | > 5 µM
5 | CN(C)c1[nH]c(=O)c(-c2cc(Cl)ccc2F)cc1Nc1ccnc2cc(C(F)(F)F)ccc12 [Compound 1.33, 3-(5-chloro-2-fluorophenyl)-6-(dimethylamino)-5-((7-(trifluoromethyl)quinolin-4-yl)amino)pyridin-2(1H)-one] | 2 to 5 µM
6 | CN(C)c1[nH]c(=O)c(-c2cc(Cl)ccc2F)cc1Nc1ccncc1C(=O)NC1CC1 [Compound 1.30, 4-((5-(5-chloro-2-fluorophenyl)-2-(dimethylamino)-6-hydroxypyridin-3-yl)amino)-N-cyclopropylnicotinamide] | 2 to 5 µM
7 | CC(C)c1[nH]c(=O)c(-c2cc(Cl)ccc2F)cc1Nc1ccnc(NC(=O)C2CC2)c1 [Compound 1.45, N-(4-((5-(5-chloro-2-fluorophenyl)-2-isopropyl-6-oxo-1,6-dihydropyridin-3-yl)amino)pyridin-2-yl)cyclopropanecarboxamide] | > 5 µM
8 | CC(O)CNC(=O)c1cnccc1Nc1c[nH]c(=O)c(-c2cc(Cl)ccc2F)c1 (centres unmarked) [Compound 1.1, 4-((5-(5-chloro-2-fluorophenyl)-6-oxo-1,6-dihydropyridin-3-yl)amino)-N-(2-hydroxypropyl)nicotinamide] | 2 to 5 µM
9 | CN(C)c1[nH]c(=O)c(-c2cc(Cl)ccc2F)cc1Nc1ccncc1C(F)(F)F [Compound 1.15, 3-(5-chloro-2-fluorophenyl)-6-(dimethylamino)-5-((3-(trifluoromethyl)pyridin-4-yl)amino)pyridin-2(1H)-one] | > 5 µM
10 | CN(C)c1[nH]c(=O)c(-c2cc(Cl)ccc2F)cc1Nc1ccnc2ccncc12 [Compound 1.37, 5-((1,6-naphthyridin-4-yl)amino)-3-(5-chloro-2-fluorophenyl)-6-(dimethylamino)pyridin-2(1H)-one] | 2 to 5 µM
11 | Cc1cccc(-c2cc(Nc3ccncc3C(=O)NC[C@H](C)O)c(N(C)C)[nH]c2=O)n1 [Compound 1.27, (S)-4-((6′-(dimethylamino)-6-methyl-2′-oxo-1′,2′-dihydro-[2,3′-bipyridin]-5′-yl)amino)-N-(2-hydroxypropyl)nicotinamide] | > 5 µM
12 | C[C@H](CO)NC(=O)c1cnccc1Nc1cc(-c2cc(Cl)ccc2F)c(=O)n2c1N(C)CC2 [Compound 1.23, (R)-4-((6-(5-chloro-2-fluorophenyl)-1-methyl-5-oxo-1,2,3,5-tetrahydroimidazo[1,2-a]pyridin-8-yl)amino)-N-(1-hydroxypropan-2-yl)nicotinamide] | > 5 µM
13 | CC(C)c1[nH]c(=O)c(-c2cc(Cl)ccc2F)cc1Nc1ccnc(N)c1 [Compound 1.44, 5-((2-aminopyridin-4-yl)amino)-3-(5-chloro-2-fluorophenyl)-6-isopropylpyridin-2(1H)-one] | > 5 µM
14 | C[C@H](O)CNC(=O)c1cnccc1Nc1cc(-c2cc(Cl)ccc2F)c(=O)n(C)c1 [Compound 1.7, (S)-4-((5-(5-chloro-2-fluorophenyl)-1-methyl-6-oxo-1,6-dihydropyridin-3-yl)amino)-N-(2-hydroxypropyl)nicotinamide] | > 5 µM
15 | CNC(=O)c1cnccc1Nc1cc(-c2cc(Cl)ccc2F)c(=O)[nH]c1N(C)C [Compound 1.38, 4-((5-(5-chloro-2-fluorophenyl)-2-(dimethylamino)-6-oxo-1,6-dihydropyridin-3-yl)amino)-N-methylnicotinamide] | 0.5 to 2 µM
16 | CNC(=O)c1cnccc1Nc1cc(-c2cc(Cl)ccc2F)c(=O)[nH]c1SC [Compound 1.39, 4-((5-(5-chloro-2-fluorophenyl)-2-(methylthio)-6-oxo-1,6-dihydropyridin-3-yl)amino)-N-methylnicotinamide] | ≤ 0.5 µM
17 | CC(=O)Nc1cc(Nc2cc(-c3ccc(F)nc3)c(=O)[nH]c2C(C)C)ccn1 [Compound 1.51, N-(4-((6′-fluoro-6-isopropyl-2-oxo-1,2-dihydro-[3,3′-bipyridin]-5-yl)amino)pyridin-2-yl)acetamide] | > 5 µM
18 | Cc1cccc(-c2cc(Nc3ccnc4[nH]ccc34)c(N(C)C)[nH]c2=O)n1 [Compound 1.13, 5′-((1H-pyrrolo[2,3-b]pyridin-4-yl)amino)-6′-(dimethylamino)-6-methyl-[2,3′-bipyridin]-2′(1′H)-one] | 2 to 5 µM

More lines, now with the values ahead:

Row | IC50 | Compound
19 | ≤ 0.5 µM | CCc1[nH]c(=O)c(-c2ccc(F)c(Cl)c2)cc1Nc1ccnc(NC(C)=O)c1 [Compound 1.88, N-(4-((5-(3-chloro-4-fluorophenyl)-2-ethyl-6-oxo-1,6-dihydropyridin-3-yl)amino)pyridin-2-yl)acetamide]
20 | ≤ 0.5 µM | CNC(=O)c1cnccc1Nc1cc(-c2cc(Cl)ccc2F)c(=O)[nH]c1C1CC1 [Compound 1.68, 4-((5-(5-chloro-2-fluorophenyl)-2-cyclopropyl-6-oxo-1,6-dihydropyridin-3-yl)amino)-N-methylnicotinamide]
21 | 0.5 to 2 µM | CC(=O)Nc1cc(Nc2cc(-c3cccc(C#N)c3)c(=O)[nH]c2C(C)C)ccn1 [Compound 1.54, N-(4-((5-(3-cyanophenyl)-2-isopropyl-6-oxo-1,6-dihydropyridin-3-yl)amino)pyridin-2-yl)acetamide]
22 | ≤ 0.5 µM | O=c1[nH]c(C2CC2)c(Nc2ccnc3ccncc23)cc1-c1cc(Cl)ccc1F [Compound 1.67, 5-((1,6-naphthyridin-4-yl)amino)-3-(5-chloro-2-fluorophenyl)-6-cyclopropylpyridin-2(1H)-one]
23 | > 5 µM | CC(C)c1[nH]c(=O)c(-c2cc(Cl)ccc2F)cc1Nc1ccnc(NS(C)(=O)=O)c1 [Compound 1.63, N-(4-((5-(5-chloro-2-fluorophenyl)-2-isopropyl-6-oxo-1,6-dihydropyridin-3-yl)amino)pyridin-2-yl)methanesulfonamide]
24 | ≤ 0.5 µM | COc1[nH]c(=O)c(-c2cc(Cl)ccc2F)cc1Nc1ccnc2[nH]ccc12 [Compound 1.76, 5-((1H-pyrrolo[2,3-b]pyridin-4-yl)amino)-3-(5-chloro-2-fluorophenyl)-6-methoxypyridin-2(1H)-one]
25 | ≤ 0.5 µM | CCc1[nH]c(=O)c(-c2cc(Cl)ccc2F)cc1Nc1ccncc1C(=O)NC [Compound 1.72, 4-((5-(5-chloro-2-fluorophenyl)-2-ethyl-6-oxo-1,6-dihydropyridin-3-yl)amino)-N-methylnicotinamide]
26 | ≤ 0.5 µM | COc1[nH]c(=O)c(-c2cc(Cl)ccc2F)cc1Nc1ccnc(NC(C)=O)c1 [Compound 1.75, N-(4-((5-(5-chloro-2-fluorophenyl)-2-methoxy-6-oxo-1,6-dihydropyridin-3-yl)amino)pyridin-2-yl)acetamide]
27 | 2 to 5 µM | Cc1cc(-c2cc(Nc3ccnc4ccncc34)c(C(C)C)[nH]c2=O)ccc1F [Compound 1.89, 5-((1,6-naphthyridin-4-yl)amino)-3-(4-fluoro-3-methylphenyl)-6-isopropylpyridin-2(1H)-one]
28 | 0.5 to 2 µM | CC(C)c1[nH]c(=O)c(-c2ccsc2)cc1Nc1ccnc2ccncc12 [Compound 1.80, 5-((1,6-naphthyridin-4-yl)amino)-6-isopropyl-3-(thiophen-3-yl)pyridin-2(1H)-one]
29 | > 5 µM | CC(=O)Nc1cc(Nc2cc(-c3cc(Cl)c(C)cc3F)c(=O)[nH]c2C(C)C)ccn1 [Compound 1.64, N-(4-((5-(5-chloro-2-fluoro-4-methylphenyl)-2-isopropyl-6-oxo-1,6-dihydropyridin-3-yl)amino)pyridin-2-yl)acetamide]
